{"source": "patent US12077566B2", "about": "“Mutants of recombinant immunoregulatory protein of Ganoderma lucidum and applications thereof” (priority 2017, dated 2024)", "key": {"[1]": {"test_system": "rLZ-8 internalization in Hep G2 cells", "assay": "Inhibitor screening of rLZ-8 endocytosis", "assay_type": "cell-based", "method": "The rLZ-8 is labeled by an Alexa Fluor 568 fluorescent probe; then 10 μg/mL fluorescent labeled rLZ-8 acts on Hep G2 cells for 3 hours; whether the rLZ-8 enters the cell is observed with the ultrahigh resolution imaging system; and obtained images are reconstructed, fitted and further analyzed through an image analysis software of Imaris.\nInhibitors of different internalization ways are selected, respectively EIPA (macropinocytosis inhibitor), Wortmannin/LY294002 (P13K inhibitor), Nystatin+Progesterone (caveolae inhibitor) and Chlorpromazine (clathrin inhibitor); the inhibitors respectively act on the Hep G2 cells, and inhibitory effects of the inhibitors on rLZ-8 endocytosis are observed."}, "[2]": {"test_system": "human liver cancer Hep G2 cells", "conditions": "for Mice weight after experiment: mouse, in vivo; for Mice tumor weight after experiment / Survival rate of mice after experiment: qd×28 i.v., rLZ-8 and mutants 0.5 mg/kg, sorafenib 50 mg/kg; for Survival rate of mice after experiment: 10 mice per group", "text": "Two weeks later, the model mice are divided into groups randomly, and each group has 10 mice. The administration method is caudal vein injection, once a day, for consecutive 28 days (qd×28, i.v.). […] During the experiment, if the mouse dies, the dead mouse is weighted on the same day, and the tumor tissue is taken out to be weighted. For the living mouse after administration for 28 days, the mouse is killed, and then the tumor tissue is taken out to be weighted. The death time and death number of the mice in each group are recorded in detail; the survival conditions of the mice of the experimental groups and the control groups are analyzed, and the survival rate is calculated, wherein the survival rate is obtained through subtracting the death number of the mice from the total number of the mice, and then dividing the difference by the total number of the mice."}, "[3]": {"test_system": "Hep G2 cells", "assay": "Cell death after rLZ-8 internalization", "assay_type": "cell-based", "conditions": "100 μg/mL, 5 hours", "text": "With the ultrahigh resolution imaging system, the whole change process of the cell after the internalization of the rLZ-8 is observed in real time; and, combined with the above researches, the reason why the rLZ-8 causes the tumor cell death is judged."}, "[4]": {"test_system": "human breast cancer MCF7 cells", "assay": "Orthotopic transplantation tumor model of human breast cancer MCF7 cells", "assay_type": "in vivo, BALB/c nude mice", "conditions": "after administration for 28 days", "method": "One day before the experiment, 0.5 mg of 17ß estradiol sustained release tablet is embedded below the neck skin of the BALB/c nude mice."}, "[5]": {"test_system": "EGFR, c-Met, PDGFR, N-cadherin and LDLR", "assay": "Immunofluorescence co-localization of rLZ-8 with membrane receptors", "assay_type": "cell-based", "method": "Considering that the high internalization degree of the rLZ-8 may be caused by the internalization after binding with a receptor on the cytomembrane, the rLZ-8 and the receptor on the cytomembrane are screened. Relationships between the different receptors on the cytomembrane and the tLZ-8 are measured through an immunofluorescence method. Fluorescent labels are made respectively on antibodies of EGFR, c-Met, PDGFR, N-cadherin and LDLR, and co-localization situations thereof with the rLZ-8 are respectively observed."}, "[6]": {"biological_target": "EGFR extracellular domain (Homo sapiens, UniProt P00533)", "assay": "Affinity test by surface plasmon resonance (Biacore T200, CM5 chip)", "assay_type": "binding", "conditions": "EGFR extracellular domain coupled on CM5 chip, analyte 4-256 nM", "method": "The Biacore™ T200 equipment (a Surface Plasmon Resonance from GE Company) is selected. Through the surface plasma resonance technology, the affinity of the rLZ-8 and the mutants thereof to the EGFR extracellular domain is tested. The CM5 chip is adopted to serve as the affinity test chip.\nThe EGFR extracellular domain (with an amino acid sequence of 25-645) serves as the ligand for coupling; 1 mg EGFR freeze-dried powders are diluted with HEPES buffer solution to a concentration of 400 μg/mL and set aside. Three 1.5 mL EP tubes are prepared; 10 μL ligand are respectively added into the three tubes, then 90 μL 10 mM sodium acetate with different pH values of 4.5, 5.0 and 5.5 are respectively added into the tubes and are mixed completely and uniformly; and a final concentration of the ligand is 40 μg/mL. Moreover, 200 μL 50 mM sodium acetate is added into another 1.5 mL EP tube.\nThe ligand has a molecular weight of 70 kDa, the analyte (rLZ-8) has a molecular weight of 12.4 kDa. In theory, one rLZ-8 […] can bind with one EGFR, and thus the stoichiometric ratio Sm is equal to 1. Through the following equations, the coupling amount RL of the ligand is calculated.\nThrough the experimental experience, the optimal reagent coupling amount is set to be 3*RL, and the coupling amount is set to be 1700 RU. The EGFR extracellular domain is successively coupled on the CM5 chip. […]"}, "[7]": {"test_system": "human lung cancer A549 cells", "assay": "Orthotopic transplantation tumor model of human lung cancer A549 cells;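 further: test animals were NOG mice aged 6-8 weeks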", "conditions": "after administration for 28 days", "description": "The human lung cancer A549 cell strain is selected. The NOG Mice of 6-8 weeks old are selected.\nThe DMEM containing 10% fetal bovine serum is selected for the human lung cancer A549 cells, and then is placed in the CO2 constant-temperature incubator at 37° C. for culturing. The A549 cells at the logarithmic phase are digested by pancreatin and thereafter washed with serum-free DMEM; the living cell concentration is adjusted to 1×10^8 cells per milliliter; 20 μL cell suspension is taken and inoculated at the lung of the NOG mice; two weeks later, the orthotopic transplantation tumor model of A549 lung cancer cells is constructed in the NOG mice."}, "[8]": {"test_system": "S180", "conditions": "mouse; cited from earlier work"}, "[9]": {"assay": "In vivo half-life period"}, "[10]": {"test_system": "transplanted liver cancer cells H22", "conditions": "mouse; cited from earlier work"}, "[11]": {"test_system": "human colon cancer SW480 cells", "assay": "Transplantation tumor model of human colon cancer SW480 cells", "assay_type": "in vivo, BALB/c nude mice", "conditions": "after administration for 28 days"}}, "data": [{"compound": "CCN(c1nc(N)c(C(=O)NC(=N)N)nc1Cl)C(C)C", "note": "[EIPA]", "values": [{"measurement": "Inhibitory effect on rLZ-8 internalization (in words)", "setting": "[1]; Hep G2 cells", "value": "effectively inhibits the internalization of the rLZ-8"}]}, {"compound": "CNC(=O)c1cc(Oc2ccc(NC(=O)Nc3ccc(Cl)c(C(F)(F)F)c3)cc2)ccn1", "note": "[Sorafenib, sorafenib, reference compound]", "values": [{"measurement": "Mice weight after experiment", "setting": "[2]", "value": "19.6 ± 1.6", "unit": "g"}, {"measurement": "Mice tumor weight after experiment", "setting": "[2]", "value": "0.82 ± 0.37", "unit": "g"}, {"measurement": "Survival rate of mice after experiment", "setting": "[2]", "value": 50, "unit": "%"}]}, {"compound": "mβCD", "values": [{"measurement": "Inhibition of internalization efficiency of the rLZ-8", "setting": "[1]", "value": 50, "unit": "%"}]}, {"compound": "rLZ-8: recombinant immunoprotein of Ganoderma lucidum, sequence SEQ ID NO: 1, expressed in Pichia pastoris", "values": [{"measurement": "Mice weight after experiment", "setting": "[2]", "value": "19.8 ± 1.4", "unit": "g"}, {"measurement": "Mice tumor weight after experiment", "setting": "[2]", "value": "0.62 ± 0.53", "unit": "g"}, {"measurement": "Survival rate of mice after experiment", "setting": "[2]", "value": 60, "unit": "%"}, {"measurement": "Cell death (in words)", "setting": "[3]", "value": "shrinkage, burst and death of Hep G2 cells happen"}, {"measurement": "Mice tumor weight after experiment", "setting": "[4]", "value": "0.74 ± 0.35", "unit": "g"}, {"measurement": "Co-localization with other internalization-related membrane receptors (in words)", "setting": "[5]", "value": "no co-localization phenomenon"}, {"measurement": "Co-localization with the EGFR (in words)", "setting": "[5]", "value": "high-degree co-localization phenomenon"}, {"measurement": "Dissociation rate constant (koff)", "setting": "[6]", "value": 0.000583, "unit": "s⁻¹"}, {"measurement": "Ka", "setting": "[6]", "value": 63400, "unit": "M⁻¹ s⁻¹"}, {"measurement": "Mice survival rate after experiment", "setting": "[7]", "value": 50, "unit": "%"}, {"measurement": "Mice tumor weight after experiment", "setting": "[7]", "value": "0.60 ± 0.45", "unit": "g"}, {"measurement": "Mice weight after experiment", "setting": "[7]", "value": "20.8 ± 1.5", "unit": "g"}, {"measurement": "In vivo tumor growth (in words)", "setting": "[8]", "value": "can inhibit the in vivo growth"}, {"measurement": "In vivo half-life period (in words)", "setting": "[9]", "value": "relatively short in vivo half-life period"}, {"measurement": "In vivo tumor growth (in words)", "setting": "[10]", "value": "can inhibit the in vivo growth"}, {"measurement": "Mice tumor weight after experiment", "setting": "[11]", "value": "1.94 ± 0.43", "unit": "g"}]}]}
